What was measured:
Type in all cases: biochemical
[1] = molecular target: T1, MST2 (Homo sapiens, UniProt Q13188); assay: Kinase profiling MST2; conditions: 100 micromolar inhibitor concentration, 100 is no change
T1 sequence (Q13188 1-491): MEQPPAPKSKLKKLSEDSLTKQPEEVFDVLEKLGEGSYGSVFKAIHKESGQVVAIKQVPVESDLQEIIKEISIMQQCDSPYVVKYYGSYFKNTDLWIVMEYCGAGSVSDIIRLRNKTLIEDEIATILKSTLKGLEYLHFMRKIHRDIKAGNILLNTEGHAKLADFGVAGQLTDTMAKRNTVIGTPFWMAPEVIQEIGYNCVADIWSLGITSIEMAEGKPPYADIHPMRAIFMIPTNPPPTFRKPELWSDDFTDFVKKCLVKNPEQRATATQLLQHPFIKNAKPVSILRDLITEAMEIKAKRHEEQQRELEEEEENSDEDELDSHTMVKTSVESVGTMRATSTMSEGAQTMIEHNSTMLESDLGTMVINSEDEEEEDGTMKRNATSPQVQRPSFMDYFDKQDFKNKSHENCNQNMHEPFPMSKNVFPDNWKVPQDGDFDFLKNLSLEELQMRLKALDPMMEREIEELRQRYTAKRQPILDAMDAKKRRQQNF
Excerpt: (§1) Any value less that 25 is considered to be highly significant inhibition.

[2] = molecular target: ROCK 2 (Homo sapiens, UniProt O75116); assay: Kinase profiling ROCK 2; conditions: 100 micromolar inhibitor concentration, 100 is no change
Excerpt: as §1

[3] = molecular target: JNK2 (Homo sapiens, UniProt P45984); assay: Kinase profiling JNK2; conditions: 100 micromolar inhibitor concentration, 100 is no change
Excerpt: as §1

[4] = molecular target: STK33 (Homo sapiens, UniProt Q9BYT3); assay: Kinase profiling STK33; conditions: 100 micromolar inhibitor concentration, 100 is no change
Excerpt: as §1

[5] = molecular target: NEK6 (Homo sapiens, UniProt Q9HC98); assay: Kinase profiling NEK6; conditions: 100 micromolar inhibitor concentration, 100 is no change
Excerpt: as §1

[6] = molecular target: OSR1 (Homo sapiens, UniProt O95747); assay: Kinase profiling OSR1; conditions: 100 micromolar inhibitor concentration, 100 is no change
Excerpt: as §1

[7] = molecular target: T2, TAK1 (Homo sapiens, UniProt O43318); assay: Kinase profiling TAK1; conditions: 100 micromolar inhibitor concentration, 100 is no change
T2 sequence (O43318 1-303 limits assumed): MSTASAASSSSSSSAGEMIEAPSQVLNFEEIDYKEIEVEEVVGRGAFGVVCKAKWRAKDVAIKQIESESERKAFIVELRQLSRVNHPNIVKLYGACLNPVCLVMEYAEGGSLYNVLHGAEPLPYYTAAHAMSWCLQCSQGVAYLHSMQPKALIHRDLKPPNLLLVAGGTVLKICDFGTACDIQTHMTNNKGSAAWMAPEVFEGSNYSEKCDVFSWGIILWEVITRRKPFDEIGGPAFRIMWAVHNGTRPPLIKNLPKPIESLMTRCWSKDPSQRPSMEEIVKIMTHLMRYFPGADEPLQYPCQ
T2 sequence (Q15750 437-504 partner limits assumed): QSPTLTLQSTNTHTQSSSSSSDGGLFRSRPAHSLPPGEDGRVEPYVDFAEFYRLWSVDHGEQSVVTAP
Excerpt: as §1

[8] = molecular target: RSK1 (Homo sapiens, UniProt Q15418); assay: Kinase profiling RSK1; conditions: 100 micromolar inhibitor concentration, 100 is no change
Excerpt: as §1

[9] = system: AMPK; assay: Kinase profiling AMPK; conditions: 100 micromolar inhibitor concentration; 100 is no change
Excerpt: as §1

[10] = molecular target: HER4 (Homo sapiens, UniProt Q15303); assay: Kinase profiling HER4; conditions: 100 micromolar inhibitor concentration, 100 is no change
Excerpt: as §1

[11] = molecular target: T3, MKK6 (Homo sapiens, UniProt P52564); assay: Kinase profiling MKK6; conditions: 100 micromolar inhibitor concentration, 100 is no change
T3 sequence (P52564 1-334): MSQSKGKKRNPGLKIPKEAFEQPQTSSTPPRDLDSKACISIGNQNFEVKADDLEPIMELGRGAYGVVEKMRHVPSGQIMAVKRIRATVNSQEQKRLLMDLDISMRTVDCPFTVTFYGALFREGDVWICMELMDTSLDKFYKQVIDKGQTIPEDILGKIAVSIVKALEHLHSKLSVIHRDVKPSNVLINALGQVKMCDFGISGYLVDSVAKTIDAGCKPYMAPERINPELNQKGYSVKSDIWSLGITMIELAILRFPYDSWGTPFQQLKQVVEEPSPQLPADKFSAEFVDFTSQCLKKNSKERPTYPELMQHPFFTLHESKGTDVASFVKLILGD
Excerpt: as §1

[12] = molecular target: PKCγ (Homo sapiens, UniProt P05129); assay: Kinase profiling PKCγ; conditions: 100 micromolar inhibitor concentration, 100 is no change
Excerpt: as §1

[13] = molecular target: PAK2 (Homo sapiens, UniProt Q13177); assay: Kinase profiling PAK2; conditions: 100 micromolar inhibitor concentration, 100 is no change
Excerpt: as §1

[14] = molecular target: T4, PKD1 (Homo sapiens, UniProt Q15139); assay: Kinase profiling PKD1; conditions: 100 micromolar inhibitor concentration, 100 is no change
T4 sequence (Q15139 1-912): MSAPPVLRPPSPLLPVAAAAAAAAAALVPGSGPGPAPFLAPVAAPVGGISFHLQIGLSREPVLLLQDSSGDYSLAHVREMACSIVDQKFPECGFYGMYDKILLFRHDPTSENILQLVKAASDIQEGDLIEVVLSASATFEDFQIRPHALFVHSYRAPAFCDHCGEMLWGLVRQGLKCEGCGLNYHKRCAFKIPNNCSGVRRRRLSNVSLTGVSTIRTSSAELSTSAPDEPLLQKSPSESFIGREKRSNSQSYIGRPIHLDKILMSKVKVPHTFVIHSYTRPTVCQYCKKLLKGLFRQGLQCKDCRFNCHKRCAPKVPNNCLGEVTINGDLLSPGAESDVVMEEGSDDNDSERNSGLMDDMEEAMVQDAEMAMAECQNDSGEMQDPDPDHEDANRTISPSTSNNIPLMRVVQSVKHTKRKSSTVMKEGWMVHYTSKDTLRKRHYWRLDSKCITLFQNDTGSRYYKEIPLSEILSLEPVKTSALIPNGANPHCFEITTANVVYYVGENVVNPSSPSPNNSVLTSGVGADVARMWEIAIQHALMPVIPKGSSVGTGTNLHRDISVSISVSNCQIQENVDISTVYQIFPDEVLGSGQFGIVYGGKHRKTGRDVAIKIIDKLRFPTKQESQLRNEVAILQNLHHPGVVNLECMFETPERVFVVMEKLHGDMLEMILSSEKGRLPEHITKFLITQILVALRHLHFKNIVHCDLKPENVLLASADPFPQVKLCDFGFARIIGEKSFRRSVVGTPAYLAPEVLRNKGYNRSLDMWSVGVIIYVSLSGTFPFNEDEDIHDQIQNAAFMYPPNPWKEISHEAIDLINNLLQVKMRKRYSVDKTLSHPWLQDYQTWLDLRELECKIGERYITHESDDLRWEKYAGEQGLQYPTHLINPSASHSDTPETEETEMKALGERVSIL
Excerpt: as §1

[15] = molecular target: PRK2 (Homo sapiens, UniProt Q16513); assay: Kinase profiling PRK2; conditions: 100 micromolar inhibitor concentration, 100 is no change
Excerpt: as §1

[16] = molecular target: ERK2 (Homo sapiens, UniProt P28482); assay: Kinase profiling ERK2; conditions: 100 micromolar inhibitor concentration, 100 is no change
Excerpt: as §1

Sequence of PAK2 (Q13177 whole entry, species assumed): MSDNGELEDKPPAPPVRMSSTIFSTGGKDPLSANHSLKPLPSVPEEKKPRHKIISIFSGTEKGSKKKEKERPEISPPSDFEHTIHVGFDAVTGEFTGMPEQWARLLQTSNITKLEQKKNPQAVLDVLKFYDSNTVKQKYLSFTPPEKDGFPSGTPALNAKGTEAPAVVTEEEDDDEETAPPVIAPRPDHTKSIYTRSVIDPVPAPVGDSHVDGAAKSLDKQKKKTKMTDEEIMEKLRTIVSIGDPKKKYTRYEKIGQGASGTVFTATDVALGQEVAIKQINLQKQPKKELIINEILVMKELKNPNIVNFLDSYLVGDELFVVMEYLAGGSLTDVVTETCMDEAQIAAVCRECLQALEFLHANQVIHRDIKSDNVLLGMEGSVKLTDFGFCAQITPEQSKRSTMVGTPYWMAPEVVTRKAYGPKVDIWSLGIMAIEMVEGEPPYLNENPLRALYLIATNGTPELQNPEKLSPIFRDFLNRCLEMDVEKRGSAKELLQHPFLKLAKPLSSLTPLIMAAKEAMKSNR
Sequence of HER4 (Q15303 26-1308, species assumed): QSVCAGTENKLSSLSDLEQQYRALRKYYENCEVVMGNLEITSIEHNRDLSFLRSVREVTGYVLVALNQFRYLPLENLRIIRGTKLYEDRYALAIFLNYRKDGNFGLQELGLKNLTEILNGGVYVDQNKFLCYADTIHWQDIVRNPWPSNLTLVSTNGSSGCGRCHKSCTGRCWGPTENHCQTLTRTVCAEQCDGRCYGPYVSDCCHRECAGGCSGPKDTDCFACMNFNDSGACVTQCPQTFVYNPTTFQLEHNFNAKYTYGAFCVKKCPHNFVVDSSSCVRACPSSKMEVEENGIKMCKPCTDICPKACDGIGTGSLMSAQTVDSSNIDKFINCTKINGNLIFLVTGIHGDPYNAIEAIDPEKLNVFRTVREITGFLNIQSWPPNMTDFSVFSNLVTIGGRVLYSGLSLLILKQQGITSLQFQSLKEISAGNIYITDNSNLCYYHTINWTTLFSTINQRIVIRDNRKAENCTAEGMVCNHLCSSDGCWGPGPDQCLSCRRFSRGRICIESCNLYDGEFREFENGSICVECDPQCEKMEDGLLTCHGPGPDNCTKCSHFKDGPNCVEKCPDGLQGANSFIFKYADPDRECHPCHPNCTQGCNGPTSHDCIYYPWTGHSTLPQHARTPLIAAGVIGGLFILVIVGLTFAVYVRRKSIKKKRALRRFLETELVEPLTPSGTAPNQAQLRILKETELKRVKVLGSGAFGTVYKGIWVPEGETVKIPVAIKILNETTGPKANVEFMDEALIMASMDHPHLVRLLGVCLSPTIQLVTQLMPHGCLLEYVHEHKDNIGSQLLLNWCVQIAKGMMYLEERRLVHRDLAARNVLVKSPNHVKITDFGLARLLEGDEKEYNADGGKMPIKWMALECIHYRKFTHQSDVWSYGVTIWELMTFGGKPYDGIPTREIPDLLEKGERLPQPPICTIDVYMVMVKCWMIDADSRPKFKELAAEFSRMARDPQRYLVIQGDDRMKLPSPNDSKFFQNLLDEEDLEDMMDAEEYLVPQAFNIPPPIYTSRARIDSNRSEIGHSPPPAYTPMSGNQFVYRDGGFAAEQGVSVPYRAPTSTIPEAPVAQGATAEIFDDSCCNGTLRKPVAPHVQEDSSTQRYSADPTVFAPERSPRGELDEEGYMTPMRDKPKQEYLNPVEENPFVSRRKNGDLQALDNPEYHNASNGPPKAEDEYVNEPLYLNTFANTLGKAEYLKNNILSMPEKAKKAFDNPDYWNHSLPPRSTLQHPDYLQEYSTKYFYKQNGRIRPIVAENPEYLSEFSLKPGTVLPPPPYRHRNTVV
Sequence of ROCK 2 (O75116 whole entry, species assumed): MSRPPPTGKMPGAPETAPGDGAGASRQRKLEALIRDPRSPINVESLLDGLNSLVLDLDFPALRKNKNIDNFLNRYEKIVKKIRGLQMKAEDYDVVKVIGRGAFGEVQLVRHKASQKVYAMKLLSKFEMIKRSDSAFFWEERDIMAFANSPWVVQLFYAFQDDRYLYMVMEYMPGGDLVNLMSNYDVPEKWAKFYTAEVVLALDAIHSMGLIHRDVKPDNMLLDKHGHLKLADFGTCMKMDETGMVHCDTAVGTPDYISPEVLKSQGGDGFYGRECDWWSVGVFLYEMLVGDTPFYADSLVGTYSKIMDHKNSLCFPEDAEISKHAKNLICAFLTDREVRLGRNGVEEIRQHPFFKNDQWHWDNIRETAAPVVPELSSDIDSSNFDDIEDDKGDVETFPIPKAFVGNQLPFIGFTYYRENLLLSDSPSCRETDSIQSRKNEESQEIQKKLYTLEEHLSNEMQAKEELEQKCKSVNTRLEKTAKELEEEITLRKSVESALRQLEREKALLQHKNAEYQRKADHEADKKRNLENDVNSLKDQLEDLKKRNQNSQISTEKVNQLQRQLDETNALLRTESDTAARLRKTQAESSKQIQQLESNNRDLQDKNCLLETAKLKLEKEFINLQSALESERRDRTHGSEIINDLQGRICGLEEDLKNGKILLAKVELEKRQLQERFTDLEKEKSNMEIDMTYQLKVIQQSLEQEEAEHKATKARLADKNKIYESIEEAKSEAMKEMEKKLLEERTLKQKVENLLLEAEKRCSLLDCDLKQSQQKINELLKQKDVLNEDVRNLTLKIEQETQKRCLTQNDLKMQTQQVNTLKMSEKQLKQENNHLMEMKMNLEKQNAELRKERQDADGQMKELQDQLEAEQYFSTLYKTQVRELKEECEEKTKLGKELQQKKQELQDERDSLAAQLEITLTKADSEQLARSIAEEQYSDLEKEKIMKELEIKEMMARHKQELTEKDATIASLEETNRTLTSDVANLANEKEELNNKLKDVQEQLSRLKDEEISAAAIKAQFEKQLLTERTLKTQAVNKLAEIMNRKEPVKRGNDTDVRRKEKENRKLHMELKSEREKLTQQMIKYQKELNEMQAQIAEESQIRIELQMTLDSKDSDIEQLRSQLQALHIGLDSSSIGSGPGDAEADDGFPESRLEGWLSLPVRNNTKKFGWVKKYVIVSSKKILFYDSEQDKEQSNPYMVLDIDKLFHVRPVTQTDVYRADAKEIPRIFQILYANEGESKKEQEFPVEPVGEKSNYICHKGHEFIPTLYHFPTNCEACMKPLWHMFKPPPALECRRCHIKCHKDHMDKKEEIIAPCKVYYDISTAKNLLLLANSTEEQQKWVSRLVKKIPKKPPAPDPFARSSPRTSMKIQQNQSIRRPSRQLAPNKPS
Sequence of JNK2 (P45984 whole entry, species assumed): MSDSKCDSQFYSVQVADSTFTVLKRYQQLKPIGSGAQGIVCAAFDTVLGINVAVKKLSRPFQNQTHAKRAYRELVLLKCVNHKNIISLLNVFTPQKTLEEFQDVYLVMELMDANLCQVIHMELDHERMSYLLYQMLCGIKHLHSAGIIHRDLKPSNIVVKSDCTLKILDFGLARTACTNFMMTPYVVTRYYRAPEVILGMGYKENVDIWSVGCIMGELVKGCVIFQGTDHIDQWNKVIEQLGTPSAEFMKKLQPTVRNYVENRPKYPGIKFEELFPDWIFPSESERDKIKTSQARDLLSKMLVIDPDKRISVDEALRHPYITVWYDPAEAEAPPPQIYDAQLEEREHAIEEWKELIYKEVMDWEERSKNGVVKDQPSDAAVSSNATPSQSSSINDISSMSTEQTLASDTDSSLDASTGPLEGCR
Sequence of NEK6 (Q9HC98 whole entry, species assumed): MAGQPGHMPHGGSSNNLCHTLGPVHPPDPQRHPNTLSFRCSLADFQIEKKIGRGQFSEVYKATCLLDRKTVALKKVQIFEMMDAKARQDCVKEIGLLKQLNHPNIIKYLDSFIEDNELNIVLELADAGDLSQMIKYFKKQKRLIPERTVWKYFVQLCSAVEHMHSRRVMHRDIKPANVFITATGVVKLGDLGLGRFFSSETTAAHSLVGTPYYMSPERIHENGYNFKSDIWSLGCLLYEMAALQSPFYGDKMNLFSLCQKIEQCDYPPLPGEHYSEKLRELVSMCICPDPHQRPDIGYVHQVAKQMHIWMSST
Sequence of ERK2 (P28482 whole entry, species assumed): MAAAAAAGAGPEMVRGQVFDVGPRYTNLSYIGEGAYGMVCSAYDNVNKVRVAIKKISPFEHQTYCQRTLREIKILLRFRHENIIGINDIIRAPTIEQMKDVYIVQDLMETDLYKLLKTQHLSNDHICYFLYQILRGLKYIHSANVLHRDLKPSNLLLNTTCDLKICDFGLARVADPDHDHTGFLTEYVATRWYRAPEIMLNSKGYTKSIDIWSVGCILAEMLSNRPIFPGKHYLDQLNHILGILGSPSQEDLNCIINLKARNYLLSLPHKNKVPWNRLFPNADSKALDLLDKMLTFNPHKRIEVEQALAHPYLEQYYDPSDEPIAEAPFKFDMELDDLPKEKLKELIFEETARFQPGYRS

| SMILES | residual kinase activity, MST2 [1] | residual kinase activity, ROCK 2 [2] | residual kinase activity, JNK2 [3] | residual kinase activity, STK33 [4] | residual kinase activity, NEK6 [5] | residual kinase activity, OSR1 [6] | residual kinase activity, TAK1 [7] | residual kinase activity, RSK1 [8] | residual kinase activity, AMPK [9] | residual kinase activity, HER4 [10] | residual kinase activity, MKK6 [11] | residual kinase activity, PKCγ [12] | residual kinase activity, PAK2 [13] | residual kinase activity, PKD1 [14] | residual kinase activity, PRK2 [15] | residual kinase activity, ERK2 [16] | other results |
| --- | --- | --- | --- | --- | --- | --- | --- | --- | --- | --- | --- | --- | --- | --- | --- | --- | --- |
| CC(=O)Nc1nc2cc(C)ccc2s1 [Compound 03-76] | 75 | 79 | 105 | 80 | 107 | 116 | 52 | 78 | 77 | 85 | 113 | 106 | 102 | 89 | 84 | 96 |  |
| CC(=O)Nc1nc2cc(F)ccc2s1 [Compound 03-77] |  |  |  |  |  |  |  |  | 73 |  |  |  |  |  |  |  | remaining activity at 100 µM ([1]; read-out: residual kinase activity, MST2): 80%; remaining activity at 100 µM ([2]; read-out: residual kinase activity, ROCK 2): 37%; remaining activity at 100 µM ([3]; read-out: residual kinase activity, JNK2): 99%; remaining activity at 100 µM ([4]; read-out: residual kinase activity, STK33): 70%; remaining activity at 100 µM ([5]; read-out: residual kinase activity, NEK6): 96%; remaining activity at 100 µM ([6]; read-out: residual kinase activity, OSR1): 109%; remaining activity at 100 µM ([7]; read-out: residual kinase activity, TAK1): 46%; remaining activity at 100 µM ([8]; read-out: residual kinase activity, RSK1): 72%; remaining activity at 100 µM ([10]; read-out: residual kinase activity, HER4): 92%; remaining activity at 100 µM ([11]; read-out: residual kinase activity, MKK6): 118%; remaining activity at 100 µM ([12]; read-out: residual kinase activity, PKCγ): 102%; remaining activity at 100 µM ([13]; read-out: residual kinase activity, PAK2): 11%; remaining activity at 100 µM ([14]; read-out: residual kinase activity, PKD1): 66%; remaining activity at 100 µM ([15]; read-out: residual kinase activity, PRK2): 74%; remaining activity at 100 µM ([16]; read-out: residual kinase activity, ERK2): 99% |
| O=C(Nc1nc2ccc(O)cc2s1)c1ccncc1 [Compound 08-42] | 55 | 43 | 90 | 67 | 75 | 72 | 25 | 47 | 61 | 40 | 101 | 93 | 108 | 63 | 44 | 73 |  |
| O=C(Nc1nc2ccc(O)cc2s1)c1cccnc1 [Compound 08-44] | 57 | 42 | 90 | 57 | 84 | 51 | 18 | 41 | 48 | 17 | 107 | 73 | 85 | 54 | 46 | 75 |  |

— patent US10231954B2, “Neurodegenerative therapies” (LYTIX BIOPHARMA AS, priority 2014, dated 2019)
